The text below walks through data of patent US10919895B2, “Toll-like receptor 7 (TLR7) agonists having a pyridine or pyrazine moiety, conjugates thereof, and methods and uses therefor” (BRISTOL-MYERS SQUIBB COMPANY, priority 2017, dated 2021).

pEC50: −log10 of the molar value.

In test [1] the target is human TLR7 (Homo sapiens (Human), UniProt Q9NYK1). The experiment in a line: HEK-Blue TLR7 reporter assay for TLR7 agonist activity. The format is cell-based. To be noted: HEK-Blue TLR7 cells, SEAP reporter, 18 h treatment; read-out: TLR7 Agonism (EC50). The procedure: This example describes a method for assaying TLR7 agonist activity of the compounds disclosed in this specification.
HEK-Blue™ TLR7 cells were added to each well of a 384-well tissue-culture plate (15,000 cells per well) and incubated 16-18 h at 37° C., 5% CO2. Compounds (100 nl) were dispensed into wells containing the HEK-Blue™ TLR cells and the treated cells were incubated at 37° C., 5% CO2. After 18 h treatment ten microliters of freshly-prepared Quanti-Blue™ reagent (Invivogen) was added to each well, incubated for 30 min (37° C., 5% CO2) and SEAP levels measured using an Envision plate reader (OD=620 nm).
In general terms: A reporter such as luciferase makes a cellular process visible.

Test [2] concerns interleukin 6 (IL-6). The experiment in a line: IL-6 induction in human whole blood (AlphaLISA). The format is cell-based. To be noted: 37° C., 20 h. The procedure:
This example describes a method for assaying interleukin 6 induction by compounds disclosed in this specification.
Compounds diluted in DMSO were transferred to individual wells of a Matrix Technologies clear, V-bottom 384-well plate using ECHO acoustic liquid handling technology (25 nL per well). Human whole-blood samples (25 uL) were added to each well using a CyBio FeliX liquid handling instrument. The plate was shaken on a plate shaker for three min before incubating the reaction mixtures at 37° C. for 20 h. Basel RPMI 1640 medium (supplemented with L-glutamine) was then added to each well (25 uL per well) prior to liberating plasma from each sample by centrifugation (450×g, 5 min, ambient temperature). Treated plasma samples (3 uL) were subsequently transferred to individual wells of a white, shallow, 384-well ProxiPlate (Perkin Elmer) using the FeliX liquid handling instrument and their interleukin 6 levels were measured using AlphaLISA technology as described by the manufacturer, PerkinElmer. Data analyses software was used to determine compound EC50 values where the baseline was established using average DMSO values and 100% induction established using reference compound values at the highest concentration tested. EC50's can be determined with software such as Graphpad Prism™.
(Bead proximity is the source of the signal in Alpha formats.)

Test [3] has as its system IFN-α. To be noted: fold lower potency vs corresponding purine-8-one compound; cited from earlier work.

Chain of human TLR7 (Q9NYK1 27-1049): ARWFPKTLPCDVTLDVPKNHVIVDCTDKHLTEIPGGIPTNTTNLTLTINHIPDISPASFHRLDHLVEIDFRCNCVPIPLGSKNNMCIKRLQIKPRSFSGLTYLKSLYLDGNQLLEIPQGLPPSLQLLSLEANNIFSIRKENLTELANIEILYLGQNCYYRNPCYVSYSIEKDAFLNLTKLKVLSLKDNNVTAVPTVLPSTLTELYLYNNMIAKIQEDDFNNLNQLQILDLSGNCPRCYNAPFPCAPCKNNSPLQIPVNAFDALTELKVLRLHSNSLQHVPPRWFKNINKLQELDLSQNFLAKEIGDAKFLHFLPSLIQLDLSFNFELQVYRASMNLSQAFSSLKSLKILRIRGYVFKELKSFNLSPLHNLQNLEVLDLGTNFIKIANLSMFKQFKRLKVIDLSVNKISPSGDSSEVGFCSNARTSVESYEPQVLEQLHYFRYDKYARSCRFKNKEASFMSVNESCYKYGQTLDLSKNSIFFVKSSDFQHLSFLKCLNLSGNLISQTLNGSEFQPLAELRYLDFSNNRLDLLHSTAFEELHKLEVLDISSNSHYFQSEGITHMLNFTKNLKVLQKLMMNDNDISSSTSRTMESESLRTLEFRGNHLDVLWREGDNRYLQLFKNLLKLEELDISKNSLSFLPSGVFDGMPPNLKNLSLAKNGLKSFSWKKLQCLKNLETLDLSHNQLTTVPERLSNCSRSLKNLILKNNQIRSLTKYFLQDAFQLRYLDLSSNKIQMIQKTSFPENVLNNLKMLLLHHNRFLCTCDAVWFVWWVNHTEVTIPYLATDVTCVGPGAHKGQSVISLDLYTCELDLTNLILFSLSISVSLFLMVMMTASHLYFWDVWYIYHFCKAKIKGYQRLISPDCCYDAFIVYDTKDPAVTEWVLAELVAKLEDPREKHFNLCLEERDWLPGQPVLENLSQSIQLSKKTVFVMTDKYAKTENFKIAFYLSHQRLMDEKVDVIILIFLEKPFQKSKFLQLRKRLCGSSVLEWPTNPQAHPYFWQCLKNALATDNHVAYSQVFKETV

As to `CCCCOc1nc(N)c2nc(O)n(Cc3cnc(CNCC4COC4)cn3)c2n1` [Ia-02], the pEC50 in test [1] was 4.95. Consider `CCCCOc1nc(N)c2nc(O)n(Cc3cnc(CNC)cn3)c2n1` [Ia-10], for which the pEC50 in test [1] is 6.54; in test [2], 6.24. For the molecule `CCCCOc1nc(N)c2nc(O)n(Cc3ccc(CN4CCC(N)CC4)nc3)c2n1` [Ic-12], the negative-log EC50 (pEC50) in test [2] was 7.89. Take `CCCCOc1nc(N)c2nc(O)n(Cc3cnc(CNCc4ccccc4)cn3)c2n1` [Ia-03]: the pEC50 was 6.74 in test [1] and 6.00 in test [2]. Take `CCCCOc1nc(N)c2nc(O)n(Cc3ccc(CNCc4ccc(N)cc4)nc3)c2n1` [Ic-07]: the pEC50 in test [1] was 7.96; in test [2] it was 7.70. `CCCCOc1nc(N)c2nc(O)n(Cc3ccc(CN4CCC(CN)CC4)nc3)c2n1` [Ic-13] showed a pEC50 in test [2] of 7.96.

Consider `CCCCOc1nc(N)c2nc(O)n(Cc3ccc(CNCc4ccc(N)cc4)cn3)c2n1` [Ib-07], for which the values for the pEC50 in test [1] and in test [2] were 7.39 and 7.00, respectively. For `CCCCOc1nc(N)c2nc(O)n(Cc3cnc(CNCCOC)cn3)c2n1` [Ia-04], the pEC50 is 6.51 in test [1] and 6.22 in test [2].

As to `CCCCOc1nc(N)c2nc(O)n(Cc3ccc(CNCCOC)cn3)c2n1` [Ib-02], the figures for the pEC50 in test [1] and in test [2] were 7.55 and 6.96, respectively. As to `CCCCOc1nc(N)c2nc(O)n(Cc3cnc(CNC4CC4)cn3)c2n1` [Ia-05], the pEC50 is 6.85 in test [1] and 6.44 in test [2]. In test [2], `CCCCOc1nc(N)c2nc(O)n(Cc3ccc(CNCc4ccccc4)cn3)c2n1` [Ib-06] gave a pEC50 of 6.72. In turn, `CCCCCCNCc1ccc(Cn2c(O)nc3c(N)nc(OCCCC)nc32)cn1` [Ic-09] had a pEC50 in test [2] of 7.43. `CCCCOc1nc(N)c2nc(O)n(Cc3cnc(CNC(C)C)cn3)c2n1` [Ia-06]: the negative-log EC50 (pEC50) was 7.08 in test [1] and 6.68 in test [2].

As for `CCCCOc1nc(N)c2nc(O)n(Cc3cnc(CNC4CCC4)cn3)c2n1` [Ia-08], the pEC50 is 7.62 in test [1] and 6.66 in test [2]. For the molecule `CCCCOc1nc(N)c2nc(O)n(Cc3ccc(CNCCOC)nc3)c2n1` [Ic-02], the pEC50 in test [1] is 8.05.

For the molecule `CCCCNCc1ccc(Cn2c(O)nc3c(N)nc(OCCCC)nc32)nc1` [Ib-01], the negative-log EC50 (pEC50) was 7.82 in test [1] and 7.11 in test [2]. With `CCCCOc1nc(N)c2nc(O)n(Cc3ccc(CNC4CC4)nc3)c2n1` [Ic-03], the pEC50 was 8.28 in test [1] and 7.85 in test [2]. Regarding `CCCCOc1nc(N)c2nc(O)n(Cc3ccccc3)c2n1` [Compound B, reference compound], the pEC50 in test [1] was 6.33.

Regarding `CCCCOc1nc(N)c2nc(O)n(Cc3ccc(CNCCCOCCOCCOCCCNC(=O)OC(C)(C)C)cn3)c2n1` [Ib-08], the negative logarithm of the EC50 (pEC50) is 7.33 in test [1] and 6.48 in test [2].

`CCCCOc1nc(N)c2nc(O)n(Cc3ccc(CNC4CC4)cn3)c2n1` [Ib-03]: the figures for the pEC50 in test [1] and in test [2] were 7.74 and 7.21, respectively. On to `CCCCNCc1ccc(Cn2c(O)nc3c(N)nc(OCCCC)nc32)cn1` [Ic-01], for which the pEC50 was 8.32 in test [1] and 7.59 in test [2]. For `CCCCOc1nc(N)c2c(n1)N(Cc1cccc(CN3CCCC3)c1)CC(=O)N2` [Vesatolimod, vesatolimod], the “potency less than that of the corresponding purine-8-one compound, as measured by IFN-α induction” value in test [3] is listed as 100 ×. Consider `CCCCOc1nc(N)c2nc(O)n(Cc3ccc(CNC4CCCC4)nc3)c2n1` [Ic-11], for which the pEC50 in test [2] is 7.64. On to `CCCCOc1nc(N)c2nc(O)n(Cc3ccc(CNCCCN)nc3)c2n1` [Ic-05], for which the negative-log EC50 (pEC50) is 7.85 in test [1] and 7.55 in test [2]. On to `CCCCNCc1cnc(Cn2c(O)nc3c(N)nc(OCCCC)nc32)cn1` [Ia-09], for which the pEC50 was 7.05 in test [1] and 6.38 in test [2].

On to `CCCCOc1nc(N)c2nc(O)n(Cc3cnc(CNCc4ccncc4)cn3)c2n1` [Ia-01], for which the pEC50 in test [1] was 6.48; in test [2] it was 6.00.

Consider `CCCCOc1nc(N)c2nc(O)n(Cc3ccc(CNCCC)nc3)c2n1` [Ic-10], for which the results for the pEC50 in test [1] and in test [2] were 8.21 and 7.57, respectively. On the same counts, the results for `CCCCOc1nc(N)c2nc(O)n(Cc3ccc(CNCCCN)cn3)c2n1` [Ib-05] are 7.21 and 6.59. With `CCCCOc1nc(N)c2nc(O)n(Cc3ccc(CNCCCOCCOCCOCCCNC(=O)OC(C)(C)C)nc3)c2n1` [Ic-08], the pEC50 in test [1] was 7.64; in test [2], 6.82. As for `CCCCOc1nc(N)c2nc(O)n(Cc3ccc(CNC4CCC4)cn3)c2n1` [Ib-04], the pEC50 in test [1] is 7.92; in test [2], 7.11.

For the molecule `CCCCOc1nc(N)c2nc(O)n(Cc3cnc(CNC4COC4)cn3)c2n1` [Ia-07], the pEC50 is 6.31 in test [1] and 6.00 in test [2]. As to `CCCCOc1nc(N)c2nc(O)n(Cc3cnc(CO)cn3)c2n1` [Compound 6], the pEC50 in test [1] is 6.54.

In test [2], `CCCCOc1nc(N)c2nc(O)n(Cc3ccc(CNCc4ccccc4)nc3)c2n1` [Ic-06] had a pEC50 of 6.74.

By pEC50 is commonly meant the EC50 on a negative log10 scale, so that one unit is a factor of ten.
